In patent EP4201923A1, “5-SUBSTITUTED 2,3-DIHYDROPYRIDIN-4-ONES AND PROCESS FOR PREPARING THE SAME” (Karl-Franzens-Universität Graz, priority 2021, dated 2023):

Experiments:
[1] = system: human CCRF-CEM leukemia cells; test: Anticancer activity by cytotoxicity to human CCRF-CEM leukemia cells (XTT colorimetric cell viability); type: cell-based; details: solvent control DMSO 0.1 %
Protocol: Assays were performed using an established cancer cell line, human CCRF-CEM leukemia cells and cell viability determined as described above with a colorimetric assay using the tetrazolium salt XTT as reported (Moshin N et al. Monatshefte für Chemie 2018, 149, 801-812). The anticancer drug vinblastine, the solvent DMSO and the untreated cells are used as control. The compounds of examples 1 to 8 were investigated in concentrations of 5 µM and 50 µM. Table 2: Results for anticancer activity against CCRF-CEM cells expressed as cell metabolic activity in % of the solvent control The results are expressed as cell metabolic activity in % of the solvent control. […] Thus, the compounds of the present invention show a substantial anticancer activity.

Pseudomonas fluorescens = test: Antimicrobial activity, drop plate method assay; type: cell-based; design: key: high activity (++); medium activity (+); low activity (±); no activity(-); details: 10 µl of 1 mg/ml in DMSO dropped on seeded agar plate; read after approximately 10-16 h
Protocol: (§1) A drop plate method assay (Alajlani M et al. Chromatographia 2016, 79, 1527-1532.) with modification was performed to detect the antimicrobial activity against several bacteria strains. Investigated compounds (compounds of examples 1-7, 9) were dissolved in DMSO to a concentration of 1 mg/ml. Using sterile micropipette 10 µl of each compound was directly but gently dropped over seeded agar plate with test organism. The liquid was allowed to diffuse before the plate was inverted and incubated. The growth conditions for every strain were considered. The results were noted when a lawn of the indicator organism appeared on the plate (approximately 10-16 h). The magnitude of activity was noted as high activity (++), medium activity (+), low activity (±) and no activity(-). Not determined data are indicated with n.d. Table 3: Antimicrobial activities of compounds_were detected over the test organisms

Micrococcus luteus = test: Antimicrobial activity, drop plate method assay; type: cell-based; design: key: high activity (++); medium activity (+); low activity (±); no activity(-); details: 10 µl of 1 mg/ml in DMSO dropped on seeded agar plate; read after approximately 10-16 h
Protocol: as §1

Escherichia coli = test: Antimicrobial activity, drop plate method assay; type: cell-based; design: key: high activity (++); medium activity (+); low activity (±); no activity(-); details: 10 µl of 1 mg/ml in DMSO dropped on seeded agar plate; read after approximately 10-16 h
Protocol: as §1

Serratia sp = test: Antimicrobial activity, drop plate method assay; type: cell-based; design: key: high activity (++); medium activity (+); low activity (±); no activity(-); details: 10 µl of 1 mg/ml in DMSO dropped on seeded agar plate; read after approximately 10-16 h
Protocol: as §1

MRC-5 cells = test: Cytotoxicity assay using MRC-5 cells (XTT colorimetric cell viability); type: cell-based, human; details: solvent control DMSO 0.1 %
Excerpt: The results are expressed as cell metabolic activity in % of the solvent control.

SMILES | cell metabolic activity in % of the solvent control, mean ([1]; compound 5 µM) | cell metabolic activity in % of the solvent control, mean ([1]; compound 50 µM) | Antimicrobial activity, Pseudomonas fluorescens (Pseudomonas fluorescens) | Antimicrobial activity, Micrococcus luteus (Micrococcus luteus) | Antimicrobial activity, Escherichia coli (Escherichia coli) | Antimicrobial activity, Serratia sp (Serratia sp) | cell metabolic activity in % of the solvent control, mean (MRC-5 cells; compound 5 µM) | cell metabolic activity in % of the solvent control, mean (MRC-5 cells; compound 50 µM) | cell metabolic activity in % of the solvent control, mean ([1]; control substance at 100 nM) | cell metabolic activity in % of the solvent control, mean (MRC-5 cells; control substance at 100 nM)
CC1(C)CC(=O)C(C(c2ccc(F)cc2)N2CCCC2)=CN1 (racemic) [Example 4, (RS)-2,3-Dihydro-2,2-dimethyl-5-((4-fluorphenyl)-(pyrrolidin-1-yl)methyl)pyridin-4(1H)-one] | 88.03% | 8.82% | + | + | ++ | + | 105.92% | 90.99% |  | 
CC(C)c1ccc(C(C2=CNC(C)(C)CC2=O)N2CCCC2)cc1 (racemic) [Example 5, (RS)-2,3-Dihydro-2,2-dimethyl-5-((4-isopropylphenyl)-(pyrrolidin-1-yl)methyl)pyridin-4(1H)-one] | 75.36% | 8.72% | ++ |  | + | ± | 104.11% | 42.19% |  | 
CC1(C)CC(=O)C(C(c2ccccc2C(F)(F)F)N2CCCC2)=CN1 (racemic) [Example 8, (RS)-2,3-Dihydro-2,2-dimethyl-5-((pyrrolidin-1-yl)-(2-trifluormethylphenyl)methyl)pyridin-4(1H)-one] | 52.06% | 8.46% |  |  |  |  | 103.65% | 67.08% |  | 
CC1(C)CC(=O)C(C(c2ccc(F)cc2)N2CCOCC2)=CN1 (racemic) [Example 6, (RS)-2,3-Dihydro-2,2-dimethyl-5-((4-fluorphenyl)(morpholin-1-yl)methyl)pyridin-4 (1H) -one] | 87.71% | 8.78% | ++ |  | + | ± | 105.36% | 89.35% |  | 
CC1(C)CC(=O)C(C(c2ccccc2)N2CCOCC2)=CN1 (racemic) [Example 3, (RS)-2,3-Dihydro-2,2-dimethyl-5-(phenyl(morpholin-1-yl)methyl)pyridin-4(1H)-one] | 93.13% | 10.98% | + | ++ | + | ± | 110.88% | 84.05% |  | 
CC[C@]1(O)C[C@@H]2CN(CCc3c([nH]c4ccccc34)[C@@](C(=O)OC)(c3cc4c(cc3OC)N(C)[C@H]3[C@@](O)(C(=O)OC)[C@H](OC(C)=O)[C@]5(CC)C=CCN6CC[C@]43[C@@H]65)C2)C1 [Vinblastine, vinblastine, reference compound] |  |  |  |  |  |  |  |  | 9.06% | 51.88%
CC1(C)CC(=O)C(C(c2ccncc2)N2CCCC2)=CN1 (racemic) [Example 9, (RS)-2,3-Dihydro-2,2-dimethyl-5-((4-pyridyl)-(pyrrolidin-1-yl)methyl)pyridin-4(1H)-one] |  |  |  | + | + | ± |  |  |  | 
CC1(C)CC(=O)C(C(c2ccccc2)N2CCCCC2)=CN1 (racemic) [Example 2, (RS)-2,3-Dihydro-2,2-dimethyl-5-(phenyl(piperidin-1-yl)methyl)pyridin-4(1H)-one] | 88.18% | 8.75% | + | + | + | ± | 108.05% | 82.27% |  | 
CC1(C)CC(=O)C(C(c2ccccc2)N2CCCC2)=CN1 (racemic) [Example 1, (RS)-2,3-Dihydro-2,2-dimethyl-5-(phenyl(pyrrolidin-1-yl)methyl)pyridin-4(1H)-one] | 88.69% | 9.02% | + | + | + | ± | 107.18% | 87.86% |  | 
Cc1ccc(C(C2=CNC(C)(C)CC2=O)N2CCCC2)cc1 (racemic) [Example 7, (RS)-2,3-Dihydro-2,2-dimethyl-5-((4-methylphenyl)-(pyrrolidin-1-yl)methyl)pyridin-4(1H)-one] | 87.47% | 8.52% | ++ |  | + | ± | 100.07% | 88.41% |  | 
